According to paper PMC10011747, “Targeting androgen receptor and the variants by an orally bioavailable Proteolysis Targeting Chimeras compound in castration resistant prostate cancer” (eBioMedicine, 2023):

Key:
Type in all cases: cell-based, human
full-length AR = test: AR degradation by western blot in prostate cancer cell lines; details: 24 h treatment; LNCaP, CWR22Rv1, VCaP
Description: To obtain total lysates, cells were lysed in RIPA buffer (50 mM Tris–HCl pH 8.0, 150 mM NaCl, 1% NP-40, 0.5% Na-deoxycholate, 0.5% SDS plus protease inhibitors). The lysates were resolved by SDS-polyacrylamide gel electrophoresis, and the protein expression was analyzed by western blotting using primary antibodies against AR (Millipore Cat# 06-680, RRID:AB_310214), AR-V7 (RevMAb Biosciences Cat# 31-1109-00, RRID:AB_2716436), GAPDH (Cell Signaling Technology Cat# 2118, RRID:AB_561053) and Actin (Sigma–Aldrich Cat# A5441, RRID:AB_476744). pLenti4/TO/Flag-AR or pLenti4/TO/Flag-TC-AR plasmid was co-transfected with HA-ubiquitin plasmid into 293T cells. 24 h after transfection, the cells were treated with 10 μM of the PROTAC compounds for 16 h, followed by 4-h treatment of 5 μM MG132. The cells were lysed with lysis buffer (50 mM Tris–HCl pH7.5, 150 mM NaCl, 0. 5% Triton X-100, 10% glycerol, 1 mM EDTA plus protease inhibitors) containing 1 ng/mL of N-ethylmaleimide, followed by immunoprecipitation with anti-Flag M2 (Sigma–Aldrich Cat# F3165, RRID:AB_259529) antibody. The ubiquitinated AR was then detected by western blotting using anti-HA (Sigma–Aldrich Cat# H3663, RRID:AB_262051) antibody.
Fig. 1 PROTAC-based AR degraders ITRI-90, ITRI-125 and ITRI-126 reduce AR and AR-V7 proteins in prostate cancer cell lines. (a) Chemical structure of the PROTAC AR degraders. (b) Representative western blots of AR protein levels in LNCaP, CWR22Rv1 and VCaP cells treated with the PROTAC degraders for 24 h. AR was detected by N-terminal antibody which also detects C-terminal truncated AR-V(ΔLBD) in CWR22Rv1 cells. AR-V7 specific antibody was used for AR-V7 detection. 4%–12% gradient gel was used to separate different species of AR-V(ΔLBD) near 75 kDa in CWR22Rv1 cell lysates. DC50 indicating the concentration required to achieve 50% degradation, was calculated based on normalized full-length AR and AR-V7 band intensity. Dmax is the maximum degradation achieved at 20 μM compound treatment. TEXT PRINTED IN THE PICTURE: (a) ITRI-90: AR DC50 (μM) LNCaP: 2.12 ± 0.93; AR DC50 (μM) CWR22Rv1: 5.73 ± 2.28; AR DC50 (μM) VCaP: 8.67 ± 4.87; AR-V7 DC50 (μM) CWR22Rv1: 4.72 ± 2.52; AR-V7 DC50 (μM) VCaP: 0.29 ± 0.15; AR Dmax (%) LNCaP: 88; AR Dmax (%) CWR22Rv1: 98; AR Dmax (%) VCaP: 90; AR-V7 Dmax (%) CWR22Rv1: 100; AR-V7 Dmax (%) VCaP: 63 | (a) ITRI-125: AR DC50 (μM) LNCaP: 6.10 ± 4.43; AR DC50 (μM) CWR22Rv1: 6.64 ± 1.87; AR DC50 (μM) VCaP: 9.05 ± 3.75; AR-V7 DC50 (μM) CWR22Rv1: 1.89 ± 1.06; AR-V7 DC50 (μM) VCaP: 0.52 ± 0.37; AR Dmax (%) LNCaP: 71; AR Dmax (%) CWR22Rv1: 96; AR Dmax (%) VCaP: 85; AR-V7 Dmax (%) CWR22Rv1: 99; AR-V7 Dmax (%) VCaP: 67 | (a) ITRI-126: AR DC50 (μM) LNCaP: 3.41 ± 3.13; AR DC50 (μM) CWR22Rv1: 0.11 ± 0.02; AR DC50 (μM) VCaP: 0.851 ± 0.43; AR-V7 DC50 (μM) CWR22Rv1: 0.011 ± 0.003; AR-V7 DC50 (μM) VCaP: 0.43 ± 0.19; AR Dmax (%) LNCaP: 99; AR Dmax (%) CWR22Rv1: 74; AR Dmax (%) VCaP: 94; AR-V7 Dmax (%) CWR22Rv1: 91; AR-V7 Dmax (%) VCaP: 82

VCaP cells = test: MTT proliferation, VCaP with enzalutamide; details: 20 μM enzalutamide, with or without 10 μM PROTAC, up to 8 days
Description: Cells were seeded in triplicate in 96-well plates 1 day prior to drug treatment for all assays. For viability test and IC50 assessment, the alamarBlue™ Cell Viability Reagent (Thermo Fisher Scientific) was added to cells 7 days after PROTAC treatment, followed by fluorescence detection as the manufacturer instructed. The IC50 was calculated by dose-inhibition regression. For proliferation monitoring, 2, 4, 6 and 8 days after PROTAC treatment (day 0), viable cells were detected by MTT Cell Proliferation Kit I (Sigma–Aldrich) according to the manufacturer's instructions. Cellular caspase activity was measured by Caspase-Glo 3/7 Assay System (Promega) 1 or 2 days after the drug treatment.
Fig. 6 AR degraders effectively diminish enzalutamide-induced AR-V expression and inhibit enzalutamide-resistant cell growth. (a) VCaP cells were treated with 20 μM enzalutamide (Enz) for 2 days, followed by one-day treatment of mock or 10 μM PROTAC. Full-length AR and AR-V(ΔLBD) was detected by N-terminal AR antibody (top) or AR-V7 specific antibody (middle). […] Cell proliferation was detected by MTT every 2 days after PROTAC treatment, up to 8 days. […] (c) AR protein levels in C4-2B and C4-2B/Enz^R cells treated with mock or 10 μM PROTAC compounds for 1 day were detected by anti-N-terminal-AR and anti-AR-V7 antibodies. […] Cell growth was monitored by MTT every 2 days up to 8 days. […]

[1] = test system: AR and AR-V7 target gene expression; test: qRT-PCR of AR and AR-V7 target genes; details: CWR22Rv1 cells, 24 h, 5 μM
Description: TRIzol™ Reagent (Thermo Fisher Scientific) was used to isolate total RNA, and iScript™ cDNA Synthesis Kit (Bio-Rad, Hercules, CA, USA) was used for cDNA synthesis. The cDNA expression level of each gene was then quantified by the Bio-Rad CFX Real-Time PCR detection system using iTaq Universal SYBR Green Supermix (Bio-Rad) and primers listed in Table S1. All samples were tested in triplicate, and the expression levels were normalized against RPL13A and GAPDH cDNA levels using Bio-Rad CFX software.

Compound	AR protein expression (negative control degraders) (full-length AR)	VCaP proliferation (MTT) (VCaP cells)	expression of AR-V7 target genes [1]
Cc1ncsc1-c1ccc(CNC(=O)[C@@H]2C[C@H](O)CN2C(=O)[C@@H](NC(=O)COCCCCOc2ccc(C3CCN(C4=Nn5c(nnc5C(F)(F)F)CC4)CC3)cc2)C(C)(C)C)cc1 [ITRI-90 inactive, (2S,4S)-1-((S)-3,3-dimethyl-2-(2-(4-(4-(1-(3-(trifluoromethyl)-7,8-dihydro-[1,2,4]triazolo[4,3-b]pyridazin-6-yl)piperidin-4-yl)phenoxy)butoxy)acetamido)butanoyl)-4-hydroxy-N-(4-(4-methylthiazol-5-yl)benzyl)pyrrolidine-2-carboxamide]	did not inhibit the AR protein expression	–	–
CN1C(=O)CCC(N2Cc3c(NC(=O)COCCCCOc4ccc(C5CCN(C6=Nn7c(nnc7C(F)(F)F)CC6)CC5)cc4)cccc3C2=O)C1=O (stereo not shown) [ITRI-126 inactive, N-(2-(1-methyl-2,6-dioxopiperidin-3-yl)-1-oxoisoindolin-4-yl)-2-(4-(4-(1-(3-(trifluoromethyl)-7,8-dihydro-[1,2,4]triazolo[4,3-b]pyridazin-6-yl)piperidin-4-yl)phenoxy)butoxy)acetamide]	did not inhibit the AR protein expression	–	–
CNC(=O)c1ccc(N2C(=S)N(c3ccc(C#N)c(C(F)(F)F)c3)C(=O)C2(C)C)cc1F [enzalutamide]	–	modestly inhibits VCaP proliferation	specifically inhibited by the degraders but not enzalutamide
